Reference: paper PMC9474474, “Determination of pharmacokinetics and tissue distribution of a novel lutetium-labeled PSMA-targeted ligand, ^177Lu-DOTA-PSMA-GUL, in rats by using LC–MS/MS” (Scientific Reports, 2022)

Experiments:
[1] = Pharmacokinetics after i.v. bolus injection in rats (non-compartmental analysis, dose proportionality); assay type: in vivo, Male Sprague–Dawley rats
Procedure: Freshly prepared ^175Lu-DOTA-PSMA-GUL solution (2.1 mg/mL) was administered by i.v. bolus injection via the penile vein (n = 5–7) at three doses of 1, 2, and 5 mg/kg. Approximately 0.3 mL of the jugular venous blood samples were collected at predetermined times after i.v. injection. Plasma samples were harvested by centrifugation of the blood samples at 3220 × g for 10 min. Urine and feces samples were collected at 4, 8, 12, and 24 h after i.v. injection. All samples were stored at -70 °C until analysis.
(§1) The plasma concentration–time data were analyzed by non-compartmental method using Phoenix® WinNonlin® (Pharsight, NC, USA). The fraction of ^175Lu-DOTA-PSMA-GUL excreted into urine (Furine) and feces (Ffeces) were calculated by the ratio of the total amount of drug excreted in the urine and feces to the fraction of the dose, respectively. The tissue-to-plasma partition coefficients (KP) were calculated as the tissue-to-plasma concentration ratios.
Dose proportionality was tested for Cmax, AUCall, and AUCinf based on power model. Assuming the natural logarithm of the pharmacokinetic parameter is linearly related to the natural logarithm of dose as in the following equation: ln(PK parameter) = β0 + β1 × ln(dose), the slope coefficient (β1) and its two-sided 95% confidence intervals (CI) were estimated.

[2] = Tissue distribution at steady state after i.v. bolus loading dose plus i.v. infusion in rats; assay type: in vivo, Male Sprague–Dawley rats; conditions: for plasma concentration at steady state: from 1.5 h of i.v. infusion
Procedure: Tissue distribution of ^175Lu-DOTA-PSMA-GUL was examined under two different steady-state conditions after i.v. infusion of ^175Lu-DOTA-PSMA-GUL. Two target steady-state plasma concentrations (Css) were set as 3000 and 6000 ng/mL. Rats were surgically cannulated with polyethylene tubing (0.58 mm i.d. and 0.96 mm o.d.; Natume, Tokyo, Japan) in the left jugular vein for blood sampling and femoral vein for i.v. injection and infusion. After one day of recovery, ^175Lu-DOTA-PSMA-GUL was administered by i.v. injection as a loading dose (LD) and i.v. infusion for 3 h to achieve the target Css. The i.v. bolus LD and i.v. infusion rates (K0) were calculated by LD = Css,target·Vss and K0 = Css,target·CL, respectively. […] The calculated LD was 0.60 mg/kg and 1.20 mg/kg for the target Css of 3,000 ng/mL and 6,000 ng/mL, respectively. The calculated K0 was 1.82 mg/h/kg and 3.65 mg/h/kg for the target Css of 3,000 ng/mL and 6,000 ng/mL, respectively.
Blood samples were collected at 1.5, 2, 2.5, and 3 h during i.v. infusion, and centrifuged at 3,200 × g for 10 min. At the end of the infusion, rats were sacrificed, and brain, lung, heart, spleen, small intestine, stomach, kidney, liver, prostate, fat, muscle, and testis were excised and immediately homogenized in normal saline. All samples were stored at -70 °C until analysis.
as §1

[3] = i.v. injection, average over doses
[4] = steady state, average of both infusion levels

O=C([O-])CN1CCN(CC(=O)[O-])CCN(CC(=O)[O-])C(Cc2ccc(NC(=S)NCCCC[C@H](NC(=O)N[C@@H](CCC(=O)O)C(=O)O)C(=O)O)cc2)CN(CC(=O)[O-])CC1.[Lu+3] (stereo partly shown) [^175Lu-DOTA-PSMA-GUL, Lutetium labeled-1,4,7,10-tetraazacyclododecane-1,4,7,10-tetraacetic acid (DOTA)-PSMA-GUL]
detection in the plasma ([1]; after 4 h of i.v. injection): not detected | clearance (CL) ([1]; from the i.v. injection study): 10.126 mL/min/kg | AUCall ([1]; i.v. injection 1 mg/kg): 1841.19 ± 266.36 ng·h/mL | AUCinf ([1]; i.v. injection 1 mg/kg): 1857.48 ± 270.08 ng·h/mL | C0 ([1]; i.v. injection 1 mg/kg): 9267.42 ± 2673.59 ng/mL | CL ([1]; i.v. injection 1 mg/kg): 9.13 ± 1.30 mL/min/kg | MRT ([1]; i.v. injection 1 mg/kg): 20.4 ± 1.2 min | VSS ([1]; i.v. injection 1 mg/kg): 0.19 ± 0.03 L/kg | Vz ([1]; i.v. injection 1 mg/kg): 0.25 ± 0.03 L/kg | t1/2 ([1]; i.v. injection 1 mg/kg): 19.2 ± 1.2 min | AUCall ([1]; i.v. injection 2 mg/kg): 3029.00 ± 350.80 ng·h/mL | AUCinf ([1]; i.v. injection 2 mg/kg): 3047.45 ± 346.00 ng·h/mL | C0 ([1]; i.v. injection 2 mg/kg): 14,960.22 ± 3104.40 ng/mL | CL ([1]; i.v. injection 2 mg/kg): 11.04 ± 1.15 mL/min/kg | MRT ([1]; i.v. injection 2 mg/kg): 19.2 ± 1.8 min | VSS ([1]; i.v. injection 2 mg/kg): 0.21 ± 0.04 L/kg | Vz ([1]; i.v. injection 2 mg/kg): 0.29 ± 0.05 L/kg | t1/2 ([1]; i.v. injection 2 mg/kg): 18 ± 1.8 min | AUCall ([1]; i.v. injection 5 mg/kg): 8038.10 ± 1055.28 ng·h/mL | AUCinf ([1]; i.v. injection 5 mg/kg): 8076.44 ± 1063.99 ng·h/mL | C0 ([1]; i.v. injection 5 mg/kg): 46,720.92 ± 13,829.91 ng/mL | CL ([1]; i.v. injection 5 mg/kg): 10.46 ± 1.30 mL/min/kg | MRT ([1]; i.v. injection 5 mg/kg): 19.2 ± 1.2 min | VSS ([1]; i.v. injection 5 mg/kg): 0.20 ± 0.03 L/kg | Vz ([1]; i.v. injection 5 mg/kg): 0.30 ± 0.09 L/kg | t1/2 ([1]; i.v. injection 5 mg/kg): 19.8 ± 5.4 min | average CL [1, 3]: 10.13 mL/min/kg | average volume of distribution (Vss) [1, 3]: 0.20 L/kg | Concentration, brain ([2]; CSS,target = 3000 ng/mL): BLOQ | Concentration, fat ([2]; CSS,target = 3000 ng/mL): 320.68 ± 55.09 ng/g | Concentration, heart ([2]; CSS,target = 3000 ng/mL): 645.67 ± 204.29 ng/g | Concentration, kidney ([2]; CSS,target = 3000 ng/mL): 7253.09 ± 665.80 ng/g | Concentration, liver ([2]; CSS,target = 3000 ng/mL): 949.81 ± 342.61 ng/g | Concentration, lung ([2]; CSS,target = 3000 ng/mL): 962.76 ± 287.82 ng/g | Concentration, muscle ([2]; CSS,target = 3000 ng/mL): 342.27 ± 188.70 ng/g | Concentration, prostate ([2]; CSS,target = 3000 ng/mL): 2433.69 ± 2292.84 ng/g | Concentration, small intestine ([2]; CSS,target = 3000 ng/mL): 741.67 ± 507.55 ng/g | Concentration, spleen ([2]; CSS,target = 3000 ng/mL): 541.13 ± 52.33 ng/g | Concentration, stomach ([2]; CSS,target = 3000 ng/mL): 276.46 ± 95.71 ng/g | Concentration, testis ([2]; CSS,target = 3000 ng/mL): 504.17 ± 122.39 ng/g | Tissue to plasma coefficient (KP), fat ([2]; CSS,target = 3000 ng/mL): 0.11 ± 0.02 | Tissue to plasma coefficient (KP), heart ([2]; CSS,target = 3000 ng/mL): 0.23 ± 0.07 | Tissue to plasma coefficient (KP), kidney ([2]; CSS,target = 3000 ng/mL): 2.56 ± 0.29 | Tissue to plasma coefficient (KP), liver ([2]; CSS,target = 3000 ng/mL): 0.33 ± 0.11 | Tissue to plasma coefficient (KP), lung ([2]; CSS,target = 3000 ng/mL): 0.34 ± 0.10 | Tissue to plasma coefficient (KP), muscle ([2]; CSS,target = 3000 ng/mL): 0.12 ± 0.07 | Tissue to plasma coefficient (KP), prostate ([2]; CSS,target = 3000 ng/mL): 0.86 ± 0.82 | Tissue to plasma coefficient (KP), small intestine ([2]; CSS,target = 3000 ng/mL): 0.26 ± 0.18 | Tissue to plasma coefficient (KP), spleen ([2]; CSS,target = 3000 ng/mL): 0.19 ± 0.02 | Tissue to plasma coefficient (KP), stomach ([2]; CSS,target = 3000 ng/mL): 0.10 ± 0.04 | Tissue to plasma coefficient (KP), testis ([2]; CSS,target = 3000 ng/mL): 0.18 ± 0.04 | Concentration, plasma ([2]; CSS,target = 3000 ng/mL, LD 0.60 mg/kg, infusion 1.82 mg/h/kg): 2845.62 ± 111.43 ng/mL | Concentration, brain ([2]; CSS,target = 6000 ng/mL): BLOQ | Concentration, fat ([2]; CSS,target = 6000 ng/mL): 406.59 ± 77.17 ng/g | Concentration, heart ([2]; CSS,target = 6000 ng/mL): 737.57 ± 453.10 ng/g | Concentration, kidney ([2]; CSS,target = 6000 ng/mL): 14,455.60 ± 1272.17 ng/g | Concentration, liver ([2]; CSS,target = 6000 ng/mL): 1881.97 ± 267.48 ng/g | Concentration, lung ([2]; CSS,target = 6000 ng/mL): 1480.52 ± 464.64 ng/g | Concentration, muscle ([2]; CSS,target = 6000 ng/mL): 621.78 ± 419.81 ng/g | Concentration, prostate ([2]; CSS,target = 6000 ng/mL): 8550.82 ± 7322.84 ng/g | Concentration, small intestine ([2]; CSS,target = 6000 ng/mL): 1636.21 ± 1273.92 ng/g | Concentration, spleen ([2]; CSS,target = 6000 ng/mL): 932.03 ± 368.50 ng/g | Concentration, stomach ([2]; CSS,target = 6000 ng/mL): 612.39 ± 161.18 ng/g | Concentration, testis ([2]; CSS,target = 6000 ng/mL): 877.83 ± 252.52 ng/g | Tissue to plasma coefficient (KP), fat ([2]; CSS,target = 6000 ng/mL): 0.07 ± 0.02 | Tissue to plasma coefficient (KP), heart ([2]; CSS,target = 6000 ng/mL): 0.13 ± 0.08 | Tissue to plasma coefficient (KP), kidney ([2]; CSS,target = 6000 ng/mL): 2.61 ± 0.47 | Tissue to plasma coefficient (KP), liver ([2]; CSS,target = 6000 ng/mL): 0.34 ± 0.05 | Tissue to plasma coefficient (KP), lung ([2]; CSS,target = 6000 ng/mL): 0.26 ± 0.09 | Tissue to plasma coefficient (KP), muscle ([2]; CSS,target = 6000 ng/mL): 0.11 ± 0.07 | Tissue to plasma coefficient (KP), prostate ([2]; CSS,target = 6000 ng/mL): 1.54 ± 1.33 | Tissue to plasma coefficient (KP), small intestine ([2]; CSS,target = 6000 ng/mL): 0.29 ± 0.23 | Tissue to plasma coefficient (KP), spleen ([2]; CSS,target = 6000 ng/mL): 0.17 ± 0.08 | Tissue to plasma coefficient (KP), stomach ([2]; CSS,target = 6000 ng/mL): 0.11 ± 0.04 | Tissue to plasma coefficient (KP), testis ([2]; CSS,target = 6000 ng/mL): 0.15 ± 0.04 | Concentration, plasma ([2]; CSS,target = 6000 ng/mL, LD 1.20 mg/kg, infusion 3.65 mg/h/kg): 5713.2 ± 523.23 ng/mL | plasma concentration at steady state ([2]; LD 0.60 mg/kg, infusion rate 1.82 mg/h/kg): approximately 3,000 ng/mL | plasma concentration at steady state ([2]; LD 1.20 mg/kg, infusion rate 3.65 mg/h/kg): ~6,000 ng/mL | detection in the brain ([2]; steady state after i.v. infusion): not detected | average KP, kidneys [2, 4]: 2.58 | average KP, prostate [2, 4]: 1.20 | average KP, other tissues ([2]; steady state, tissues other than kidneys and prostate): less than 0.34
